Measurements as given in US7728002B2, “Use of pyrrolopyridine compounds for activating PPAR receptors and treatment of conditions involving such receptors” (Laboratoires Fournier S.A., priority 2005, dated 2010).

How the values were obtained:
[1] = test system: db/db mice; test: db/db mice model: serum glucose, triglycerides, cholesterol; type: in vivo; details: serum 4 hours after final gavage
Protocol: The test protocol is as follows:
Homozygous male C57BL/Ks-db mice (db/db mice), 11-13 weeks old at the start of the studies, are divided into groups of 9-10 animals. The products are administered orally, once a day for 5 days. A group of mice receives the vehicle alone (methylcellulose solution at 0.5% or 1%). A blood sample is taken from the retro-orbital sinus before treatment and 4 hours after the final gavage. After centrifugation, the serum is collected and the levels of cholesterol, triglycerides and glucose are measured using a multiparameter analyzer with commercial products. The results are expressed as a percentage of variation on the final day relative to the control group.

[2] = test system: cells of murine muscle origin C2C12; test: β-oxidation of 14C-oleate on C2C12 cells differentiated as myotubes; type: cell-based; details: 10 μM, 48 hours incubation
Protocol: A second series of tests was performed with the compounds according to the invention, with the aim of confirming the activity deduced from their affinity for the receptors mentioned previously. This test consists in measuring the β-oxidation on cells of human hepatic origin HuH7 and cells of murine muscle origin C2C12 after differentiation as myotubes. The cells are inoculated in Petri dishes comprising a central well. The products are added to the culture medium and incubated for 48 hours at different concentrations. After incubation for 22 hours, ^14C-radiolabeled oleate (oleate 1-C14) is added to the culture medium. The β-oxidation reaction is stopped two hours later by adding 40% perchloric acid. The CO2 released during the oxidation of the oleate is trapped with KOH solution and then counted. Each test is performed three times. The results are expressed as a percentage of variation relative to the control dishes (dishes without compounds). According to this test, the compounds according to the invention increase the β-oxidation by up to +145% at a concentration of 10 μM on HuH7 cells.

[3] = 10 mg/kg orally once a day for 5 days
[4] = 100 mg/kg orally once a day for 5 days
[5] = 3 mg/kg orally once a day for 5 days

SMILES | Cholesterol, percentage of variation relative to the control group [1, 3] | Glucose, percentage of variation relative to the control group [1, 3] [%] | Triglycerides, percentage of variation relative to the control group [1, 3] [%] | further results
Cc1cc(C)cc(S(=O)(=O)n2c(CCCCC(=O)O)cc3nc(Cl)ccc32)c1 [Ex. 259, 5-Chloro-1-[(3,5-dimethylphenyl)sulfonyl]-1H-pyrrolo[3,2-b]pyridine-2-pentanoic acid] | +32% | −51 | −16 | –
O=C(O)CCCc1cc2nc(Cl)ccc2n1S(=O)(=O)c1ccc(-c2ccncc2)cc1 [Ex. 293, 5-Chloro-1-[[4-(4-pyridyl)phenyl]sulfonyl]-1H-pyrrolo[3,2-b]pyridine-2-butanoic acid] | +16% | −24 | −15 | –
O=C(O)CCc1cc2nc(Cl)ccc2n1S(=O)(=O)c1ccccc1 [Example 2, 5-Chloro-1-(phenylsulfonyl)-1H-pyrrolo[3,2-b]pyridine-2-propanoic acid] | +41% | −36 | −32 | –
O=C(O)CCCc1cc2nc(Cl)ccc2n1S(=O)(=O)c1ccc2ncsc2c1 [Example 4, 1-(6-Benzothiazolylsulfonyl)-5-chloro-1H-pyrrolo[3,2-b]pyridine-2-butanoic acid] | +4% | −57 | −45 | –
O=C(O)CCCc1cc2nc(Cl)ccc2n1S(=O)(=O)c1ccccc1 [Example 10, 5-Chloro-1-(phenylsulfonyl)-1H-pyrrolo[3,2-b]pyridine-2-butanoic acid] | – | – | – | increase of β-oxidation, percentage of variation relative to control dishes [2]: 70%
O=C(O)CCCc1cc2nc(C(F)(F)F)ccc2n1S(=O)(=O)c1ccccc1 [Example 20, 1-(Phenylsulfonyl)-5-(trifluoromethyl)-1H-pyrrolo[3,2-b]pyridine-2-butanoic acid] | +13% | −72 | −65 | –
CC(C)OC(=O)C(C)(C)Oc1ccc(C(=O)c2ccc(Cl)cc2)cc1 [Fenofibrate, fenofibrate, reference compound] | – | – | – | Cholesterol, percentage of variation relative to the control group [1, 4]: +32%; Glucose, percentage of variation relative to the control group [1, 4]: −9%; Triglycerides, percentage of variation relative to the control group [1, 4]: −7%
CN(CCOc1ccc(CC2SC(=O)NC2=O)cc1)c1ccccn1 (stereo not shown) [Rosiglitazone, rosiglitazone, reference compound] | – | – | – | Cholesterol, percentage of variation relative to the control group [1, 5]: −30%; Glucose, percentage of variation relative to the control group [1, 5]: −41%; Triglycerides, percentage of variation relative to the control group [1, 5]: −52%
